Measurements reported in US20260176289A1, “SMALL MOLECULE INHIBITORS OF KRAS PROTEINS” (Merck Sharp & Dohme LLC, priority 2022, published 2026).

Experiments:
NRAS = NRAS (Homo sapiens, UniProt P01111); assay: SOS-catalyzed nucleotide exchange assay (Procedure A, TR-FRET), NRAS; type: biochemical; settings: read-out: NRAS GNE IC50
Source text: Procedure for SOS-Catalyzed Nucleotide Exchange Assay for KRAS-WT, G12C/D/V, G13D, HRAS, and NRAS (Procedure A)
Recombinant KRAS-G12C protein used in this assay has an additional triple mutation (C51S/C80L/C118S). Whereas KRAS-WT, G12D/V, G13D, HRAS and NRAS are in context of their WT protein sequence background. Specifically, the SOS-catalyzed nucleotide exchange assay utilizes a preformed TR-FRET complex containing a specific biotinylated RAS protein (KRAS-WT, G12C/V/D, G13D, HRAS, NRAS; described above) with Bodipy-GDP, and Terbium-streptavidin. Compounds are preincubated with this complex for 60 minutes. Subsequently, recombinant human SOS protein and unlabeled GTP are added to initiate the exchange reaction. Small molecule inhibitors stabilize the Bodipy-GDP complex whereas the untreated protein rapidly exchanges Bodipy-GDP for unlabeled GTP resulting in reduced TR-FRET signal.
To assemble the preformed TR-FRET complexes, each biotinylated RAS protein is diluted to 2 μM in an EDTA Buffer (20 mM HEPES pH 7.5, 50 mM sodium chloride, 10 mM EDTA, and 0.01% Tween) and incubated at room temperature for one hour. This mixture is then further diluted to 90 nM in an Assay Buffer (20 mM HEPES pH 7.5, 150 mM sodium chloride, 10 mM magnesium chloride, and 0.005% Tween) containing 15 nM of Terbium-Streptavidin (Invitrogen, catalog #PV3577) and 900 nM of Bodipy-GDP (Invitrogen, catalog #G22360) and incubated at room temperature for six hours. It should be noted that this preformed TR-FRET complex for each of the RAS protein were made ahead of time, aliquoted and stored at −80° C. until the day of the experiment.
Each test compound (10 mM stock in DMSO) is diluted in DMSO to make a final-10-point, 3-fold dilution and is acoustically dispensed into a 384-well assay plate (Corning, catalog #3820) using an Echo 550 (Labcyte). Each well of the assay plate receives 3 μL of a specific 3×RAS preformed TR-FRET complex and 3 μL of Assay Buffer and is incubated at room temperature for 60 minutes (preincubation time). Each well then receives 3 μL of 3×recombinant human SOS protein and GTP (Sigma, G8877) in Assay Buffer and is incubated at room temperature for 30 minutes (G13D), 60 minutes (KRAS WT/G12C/D, H/NRAS) or 90 minutes for G12V. […]
The time-resolved fluorescence resonance energy transfer (TR-FRET) signal is measured on an Envision (PerkinElmer) plate reader: Excitation filter=340 nm; emission 1=495 nm; emission2=520 nm; dichroic mirror=D400/D505; delay time=[…]. The signal of each well is determined as the ratio of the emission at 520 nm to that at 495 nm. Percent effect of each well is determined after normalization to control wells containing DMSO (no effect) or a saturating concentration of inhibitor (max effect). […]

MKN-1 cells = assay: Cellular phospho-ERK assay, MKN-1 cells (amplified wild-type KRAS); type: cell-based; settings: Homo sapiens, amplified wild-type KRAS, 2 hours, read-out: MKN1 pERK IC50
Outline: (§1)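 p-ERK/total ERK ratio, measured by AlphaLISA SureFire Ultra multiplex in lysates, was fitted to a 4-parameter logistic model for IC50. Compound exposure was 2 h at 37° C, 5% CO2, 10-point 1:3 dilutions from 30 μM final, on cells plated the previous night.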

AsPC-1 cells = assay: Cellular phospho-ERK assay, AsPC-1 cells (homozygous KRAS-G12D); type: cell-based; settings: Homo sapiens, ASPC1, 2 h, KRAS-G12D, 2 hours, read-out: AsPC1 pERK IC50
Outline: as §1

SW620 cells = assay: Cellular phospho-ERK assay, SW620 cells (homozygous KRAS-G12V); type: cell-based; settings: Homo sapiens, SW-620, KRAS-G12V, 2 hours, read-out: SW620 pERK IC50
Outline: as §1

Chain of NRAS (P01111 with tags, fused parts or gaps): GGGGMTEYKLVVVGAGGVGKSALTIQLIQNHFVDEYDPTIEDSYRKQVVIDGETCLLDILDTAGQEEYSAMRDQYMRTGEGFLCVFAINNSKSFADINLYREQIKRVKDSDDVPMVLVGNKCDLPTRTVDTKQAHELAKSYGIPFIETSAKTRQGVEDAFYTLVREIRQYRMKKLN

Compound `C#Cc1c(F)ccc2cc(O)cc(-c3nccc4c5c(N6CCOC[C@@](C)(O)C6)nc(OC[C@@]67CCCN6C[C@H](F)C7)nc5n(C)c34)c12` [Ex-18, (S)-4-(8-(8-ethynyl-7-fluoro-3-hydroxynaphthalen-1-yl)-2-(((2R,7aS)-2-fluorotetrahydro-1H-pyrrolizin-7a(5H)-yl)methoxy)-9-methyl-9H-pyrido[4′,3′:4,5]pyrrolo[2,3-d]pyrimidin-4-yl)-6-methyl-1,4-oxazepan-6-ol] has an IC50 (NRAS) of 8820 nM, an IC50 (MKN-1 cells) of 7.67 nM and an IC50 (AsPC-1 cells) of 29.8 nM. For the same compound, the IC50 (SW620 cells) was 13.1 nM.
